Experimental findings from patent US20240425491A1, “HETEROARYL COMPOUNDS USEFUL IN THE TREATMENT OF COGNITIVE DISORDERS” (University College Cardiff Consultants Limited, priority 2021, published 2024) are described below.

As a reminder, the Ki is a measure of affinity in units of concentration, obtained from inhibition or displacement.

In the experiment the target is T1, human recombinant GABAAR containing α5β3γ2 subunits (benzodiazepine site) (Homo sapiens, UniProt P18507+P31644).
T1 construct: expressed in transfected cells; host or cells: mouse L(tk−) cells, dexamethasone-inducible vector pMSGneo
T1 sequence (P31644 32-462): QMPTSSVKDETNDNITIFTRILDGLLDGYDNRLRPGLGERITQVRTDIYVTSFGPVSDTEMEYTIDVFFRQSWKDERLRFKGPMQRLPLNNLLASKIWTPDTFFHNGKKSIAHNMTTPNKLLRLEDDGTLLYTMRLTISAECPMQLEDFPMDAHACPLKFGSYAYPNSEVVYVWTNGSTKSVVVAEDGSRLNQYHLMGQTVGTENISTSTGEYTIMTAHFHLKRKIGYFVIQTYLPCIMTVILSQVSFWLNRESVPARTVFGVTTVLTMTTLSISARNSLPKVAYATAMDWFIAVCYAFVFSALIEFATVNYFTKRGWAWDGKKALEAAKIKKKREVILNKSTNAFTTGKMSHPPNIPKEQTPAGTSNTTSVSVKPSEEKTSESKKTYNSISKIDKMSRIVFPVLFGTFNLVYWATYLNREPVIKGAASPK
T1 sequence (P28472 26-473 partner): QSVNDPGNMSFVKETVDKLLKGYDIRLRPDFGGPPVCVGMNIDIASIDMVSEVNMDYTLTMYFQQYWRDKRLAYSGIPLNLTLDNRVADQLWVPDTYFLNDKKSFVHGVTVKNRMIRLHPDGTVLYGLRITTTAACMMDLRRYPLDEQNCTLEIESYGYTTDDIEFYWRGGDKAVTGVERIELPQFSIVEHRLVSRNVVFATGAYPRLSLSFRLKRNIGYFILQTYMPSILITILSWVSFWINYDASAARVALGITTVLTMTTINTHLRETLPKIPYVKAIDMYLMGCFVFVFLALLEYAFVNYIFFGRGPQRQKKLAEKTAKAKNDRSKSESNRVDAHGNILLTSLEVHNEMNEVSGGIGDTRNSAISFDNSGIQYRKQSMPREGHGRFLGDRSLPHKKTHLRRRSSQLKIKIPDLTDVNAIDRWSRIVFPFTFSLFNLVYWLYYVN
T1 sequence (P18507 40-475): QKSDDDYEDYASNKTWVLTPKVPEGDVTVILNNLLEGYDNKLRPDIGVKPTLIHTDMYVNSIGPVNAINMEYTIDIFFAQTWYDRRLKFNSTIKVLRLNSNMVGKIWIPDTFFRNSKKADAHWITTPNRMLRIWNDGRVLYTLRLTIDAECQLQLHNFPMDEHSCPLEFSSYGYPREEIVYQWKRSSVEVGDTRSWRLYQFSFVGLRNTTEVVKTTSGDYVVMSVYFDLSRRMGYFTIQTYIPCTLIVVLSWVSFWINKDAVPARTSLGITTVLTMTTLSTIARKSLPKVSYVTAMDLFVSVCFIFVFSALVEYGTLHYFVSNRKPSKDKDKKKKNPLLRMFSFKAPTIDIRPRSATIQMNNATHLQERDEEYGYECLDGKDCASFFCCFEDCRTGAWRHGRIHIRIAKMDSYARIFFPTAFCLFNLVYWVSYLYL
The experiment can be described thus: In vitro radioligand binding assay (α5-GABAAR Ki). The following applies: inhibition of [3H]Ro15-1788 binding, membranes of L(tk−) cells expressing human α5β3γ2; read-out: α5-GABAAR Ki. An excerpt:
Mouse L(tk^−) cells stably expressing human α1β3γ2, α2β3γ2, α3β3γ2, α5β3γ2 GABAARs generated by transfection of the individual subunits in the dexamethasone-inducible expression vector pMSGneo in mouse L(tk^−) cells (Hadingham et al., 1993, Mol. Pharmacol. 43:970-975 and 1993, Mol. Pharmacol. 44:1211-1218) were used for binding and functional assays. For certain compounds, HEK293 cells stable expressing the human α1β3γ2L, α2β3γ2L, α3β3γ2L and α5β3γ2L GABAA receptors were used to evaluate their functional effects in a SyncroPatch electrophysiology assay.
L(tk^−) cells stably expressing human α1β3γ2, α2β3γ2, α3β3γ2, α5β3γ2 GABAARs were maintained in DMEM F12 medium supplemented with 10% Foetal Bovine Serum, 1% Penicillin/Streptomycin and 1 mg/mL Geneticin G418 in an incubator at 37° C. with a humidified atmosphere with 5% CO2.
The affinity (Ki) of compounds for the benzodiazepine site of human recombinant GABAARs was measured by their ability to inhibit the binding of the selective benzodiazepine antagonist [^3H] Ro15-1788 ([^3H] flumazenil).
L(tk^−) cells expressing human recombinant GABAAR containing α1β3γ2, α2β3γ2, α3β3γ2, α5β3γ2 subunits were harvested and membranes were prepared for each receptor combination in phosphate buffer (K2PO4 10 mM, pH 7.0) (Hadingham et al. (1992) Proc. Natl. Acad. Sci. USA; 89 (14): 6378-82). Protein concentration, receptor expression and the Kd of [^3H] Ro15-1788 were determined before Ki values of compounds were evaluated. For Kd evaluation, saturation binding curves were obtained by incubating membrane with various concentrations of [^3H] Ro15-1788 (82.5 Ci/mM), with nonspecific binding measured in the presence of 1 μM TP003.
For Ki evaluation, cell membranes were incubated with 4 nM [^3H] Ro15-1788 along with a range of concentrations of test compound. Nonspecific binding was determined using 1 μM TP003. All incubations were performed for 1 hour at 4° C. in assay buffer. The total assay volume was 0.5 mL, containing 100 μg membrane protein/well α1β3γ2, α2β3γ2, α3β3γ2 and 50 μg membrane protein/well for α53γ2. Incubations were terminated by filtration and washing with ice cold Tris-HCl buffer (50 mM, pH=7.4) over Whatman GF/B filters and the radioactivity of the filters was measured using liquid scintillation counting.
The % inhibition of [^3H] Ro15-1788 binding was plotted as a function of compound concentration and the IC50 calculated. From the IC50, the affinity (Ki) was calculated using the method of Cheng and Prusoff using the Kd values obtained for [^3H] Ro15-1788.

For `COc1nc(-c2cccc([N+](=O)[O-])c2)ccc1NC(=O)c1c(-c2ccccc2)noc1C` [Example 8, N-[2-Methoxy-6-(3-nitrophenyl)-3-pyridyl]-5-methyl-3-phenyl-isoxazole-4-carboxamide], the Ki stood at 104 nM.
Take `COc1ncc(-c2ccc(NC(=O)c3c(-c4ccccc4)noc3C)c(OC)n2)s1` [Example 10, N-[2-Methoxy-6-(2-methoxythiazol-5-yl)-3-pyridyl]-5-methyl-3-phenyl-isoxazole-4-carboxamide]: the Ki was determined as 72.9 nM.
Under `COc1nc(-c2cccc(N(C)C)c2)ccc1NC(=O)c1c(-c2ccccc2)noc1C` [Example 16, N-[6-[3-(Dimethylamino)phenyl]-2-methoxy-3-pyridyl]-5-methyl-3-phenyl-isoxazole-4-carboxamide] stands 403 nM; under `COc1nc(-c2ccncc2C)ccc1NC(=O)c1c(-c2ccccc2)noc1C` [Example 24, N-[2-Methoxy-6-(3-methyl-4-pyridyl)-3-pyridyl]-5-methyl-3-phenyl-isoxazole-4-carboxamide], 162 nM; under `COc1nc(-c2c(C)n[nH]c2C)ccc1NC(=O)c1c(-c2ccccc2)noc1C` [Example 25, N-[6-(3,5-Dimethyl-1H-pyrazol-4-yl)-2-methoxy-3-pyridyl]-5-methyl-3-phenyl-isoxazole-4-carboxamide], 34.2 nM.
For `COc1cc(-c2c(C)n[nH]c2C)cnc1NC(=O)c1c(-c2ccccc2)noc1C` [Example 31, N-[5-(3,5-Dimethyl-1H-pyrazol-4-yl)-3-methoxy-2-pyridyl]-5-methyl-3-phenyl-isoxazole-4-carboxamide], the Ki worked out at 69.1 nM.
With `COc1nc(-c2cc(OC)c3cn[nH]c3c2)ccc1NC(=O)c1c(-c2ccccc2)noc1C` [Example 32, N-[2-Methoxy-6-(4-methoxy-1H-indazol-6-yl)-3-pyridyl]-5-methyl-3-phenyl-isoxazole-4-carboxamide], the Ki amounted to 110 nM.
As for `COc1nc(-c2ccc3cn[nH]c3c2)ccc1NC(=O)c1c(-c2ccccc2)noc1C` [Example 34, N-[6-(1H-Indazol-6-yl)-2-methoxy-3-pyridyl]-5-methyl-3-phenyl-isoxazole-4-carboxamide], the figure is 115 nM; as for `COc1nc(-c2ccc3c(N)n[nH]c3c2)ccc1NC(=O)c1c(-c2ccccc2)noc1C` [Example 35, N-[6-(3-Amino-1H-indazol-6-yl)-2-methoxy-3-pyridyl]-5-methyl-3-phenyl-isoxazole-4-carboxamide], 27.2 nM.
For the molecule `COc1nc(-c2cnc(Cl)nc2)ccc1NC(=O)c1c(-c2ccccc2)noc1C` [Example 36, N-[6-(2-Chloropyrimidin-5-yl)-2-methoxy-3-pyridyl]-5-methyl-3-phenyl-isoxazole-4-carboxamide], the Ki was determined as 2 nM.
As for `COc1nc(-c2nccn3ccnc23)ccc1NC(=O)c1c(-c2ccccc2)noc1C` [Example 38, N-(6-Imidazo[1,2-a]pyrazin-8-yl-2-methoxy-3-pyridyl)-5-methyl-3-phenyl-isoxazole-4-carboxamide], the figure is 57.6 nM.
Under `COc1nc(-c2cnc(N)c(OC)n2)ccc1NC(=O)c1c(-c2ccccc2)noc1C` [Example 39, N-[6-(5-Amino-6-methoxy-pyrazin-2-yl)-2-methoxy-3-pyridyl]-5-methyl-3-phenyl-isoxazole-4-carboxamide] stands 32.3 nM.
For the molecule `COc1nc(-c2ncn(C)n2)ccc1NC(=O)c1c(-c2ccccc2)noc1C` [Example 51, N-[2-Methoxy-6-(1-methyl-1,2,4-triazol-3-yl)-3-pyridyl]-5-methyl-3-phenyl-isoxazole-4-carboxamide], the Ki stood at 20.5 nM.
Under `COc1nc(-c2ncccn2)ccc1NC(=O)c1c(-c2ccccc2)noc1C` [Example 63, N-(2-Methoxy-6-pyrimidin-2-yl-3-pyridyl)-5-methyl-3-phenyl-isoxazole-4-carboxamide] stands 32.6 nM.
Under `COc1nc(-c2cccnn2)ccc1NC(=O)c1c(-c2ccccc2)noc1C` [Example 64, N-(2-Methoxy-6-pyridazin-3-yl-3-pyridyl)-5-methyl-3-phenyl-isoxazole-4-carboxamide] stands 21.9 nM.
